Results as given in patent US12233129B2, “Methods and compositions for the treatment of cancer” (priority 2019, dated 2025).

Tests used:
Assay in all cases: Annexin V staining and flow cytometry (positive control)
Type in all cases: cell-based, human
Details in all cases: 100 nM, 24 hours
[1] = tested on: CCD-18Co
Method: (§1) Apoptosis in cells was assessed using an Annexin V Apoptosis Detection Kit (BD Pharmingen, San Jose, CA, USA) analyzed by using a BD Accuri C6 flow cytometer according to the manufacturer's instructions.
(§2) HCT-116 or SW48 were transfected with GFP empty vector or GFP-UBXN2A using the Neon electrotransfection system (HCT-116 and SW48) or lipofectamin 2000 (CCD-118-Co), achieving around 80% transfection efficiency. Apoptosis in cells was assessed using an Annexin V Apoptosis Detection Kit (BD Pharmingen, San Jose, CA) analyzed by a BD Accuri C6 flow cytometer according to the manufacturer's instructions. In each individual experiment, GFP expressing cells were first gated and then plotted versus Annexin V positive cells. 10,000 gated events were collected per sample. An apoptotic inducer, staurosporine (Sigma), was used as a positive control in all experiments.
(§3) FIG. 12: Annexin V staining and flow cytometry is a valid assay for measurement of early apoptosis. Un-transfected CCD-18Co, HCT-116, and SW48 cells were incubated with vehicle or staurosporine, a well-known inducer of apoptosis in a wide range of cell lines, for 24 hours. Subsequently, cells were stained with BD Biosciences Cy5 Annexin V and read on an Accuri C6 flow cytometer. Panel A. The histograms show a comparison of the distribution of Annexin V positive cells in un-transfected CCD-18Co, HCT-116 and SW48 cells (no gating). […] Panel C-D: We conducted a set of IP experiments to further confirm UBXN2A can only bind to the SBD domain and not the ATP domain. HCT-116 cells were transiently transfected with SBD domain or ATP domain of mot-2. After 36 hours, cell lysates were prepared followed by immunoprecipitation using anti-UBXN2A immobilized on magnetic protein G beads. Immunoprecipitation experiments verified UBXN2A binds to the SBD domain of mot-2 (amino acid residue 432-679) in HCT-116 cells and not the ATP domain (amino acid residue 1-437). This set of immunoprecipitation experiments verified results achieved in Y2H experiments. […]

[2] = tested on: SW48
Method: as §1, §2, §3

[3] = tested on: HCT-116
Method: as §1, §2, §3

Measured: apoptosis (Annexin V positive cells)

CN[C@@H]1C[C@H]2O[C@@](C)([C@@H]1OC)n1c3ccccc3c3c4c(c5c6ccccc6n2c5c31)C(=O)NC4 [staurosporine]
induce significant apoptosis: [1] | [2] | [3]
